Test results as given in publication PMC6370856, “Peptidyl prolyl cis/trans isomerase activity on the cell surface correlates with extracellular matrix development” (Communications Biology, 2019).

Key:
[1] = tested on: mixture of Jurkat T lymphocyte and the plasma protein fibrinogen; assay: Viscosity/shear rate measurement of Jurkat cells in fibrinogen solution; assay type: cell-based
Text: Since PPIases can catalyze the dynamic rearrangement of the dense ECM polymer network, we speculated that PPIases could also affect the dynamic interaction between cells and the ECM. Probing the influence of transient prolyl isomerization on cell–ECM interaction is difficult. Studying cell adhesion by the treatment of PPIase inhibitors cannot distinguish extracellular and intracellular factors as well as receptor-mediated signaling due to the long assay time. In order to reflect the highly dynamic process, we measured the viscosity of plasma protein solution with cells. Blood is a shear-thinning non-Newtonian fluid, and its viscosity is largely affected by the interaction between cells and plasma proteins, for example, the coagulation process. We investigated whether the catalyzed isomerization could also influence the interaction between blood cells and plasma proteins, thus affecting the viscosity. We performed viscosity/shear rate measurements using a mixture of Jurkat T lymphocyte and the plasma protein fibrinogen.
The machine used for viscosity is the same as for stiffness measurements. To 30 µL of 4 mg mL^−1 fibrinogen, an equal volume of Jurkat cells (8 × 10^7 mL^−1 in PBS, washed two times with PBS before used; Jurkat cells ocupated around 20% of the volume) was added. The mixture was pipetted up and down six times, kept on ice for 10 min, and then transferred to the rheometer plater (25 °C) for measurements. The plate temperature was raised to 37 °C. The measurement was performed by increasing shear rate ramp liner from 100 to 1000 s^−1. Hundred data points were collected during the measurements. For each condition, two independent experiments were performed (Fig. 1c and Supplementary Fig. 3).

[2] = tested on: PBMC samples from healthy donors, mixed; assay: PACS in a two-way mixed lymphocyte reaction; assay type: cell-based, human; conditions: for effect on PACS in two-way mixed lymphocyte reaction: PBMCs treated with immunosuppressive drug; for cell surface PPIase activity k, Exp. 1 / cell surface PPIase activity k, Exp. 2 / cell surface PPIase activity k, Exp. 3 / cell surface PPIase activity k, Exp. 4 / cell surface PPIase activity k, Mean: 24 hours
Procedure: PACS were measured with four PBMC samples from healthy donors or with all six different combinations. […] After 24 h, diminished activity was detected in all combinations (Fig. 6d). For two combinations, no trace of activity could be detected, resembling the results from some primary samples of leukemia cells.
Mixed lymphocyte reaction is a routine assay used to measure the safety of implantable materials and the effect of immunosuppressive treatments. The PACS assay could become an alternative test, within a relatively short period of time, avoiding the use of biochemical reagents such as antibodies.
The assay was performed in a cold room. If there was no additional description, the assays were performed in CO2-independent medium supplemented with 10% (v/v) h.i. FBS (medium-h.i. FBS) and 2mM L-glutamine. […] FBS to a final concentration of 120 µg mL^−1 (two times substrate stock). α-Chymotrypsin was prepared freshly. Fifteen micrograms of α-chymotrypsin was dissolved in 2 mL medium-h.i. FBS, and the pH was adjusted with 10 µL 1 M NaOH. Five millimole CsA, SLF, and CsA/SLF mixture were prepared in DMSO.
One or more flasks of cells (5 mL per flask, depending on the maximum culture density of each cell line) were harvested by centrifuging at 1000 rpm for 3 min. To remove PPIases from the supernatant originating from the culture, cells were washed one time with 2 mL CO2-independent medium and were resuspended in 1.6 mL of CO2-independent medium with substrate. The cells were centrifuged again, and then 800 µL of the supernatant was taken. The residual volume containing cells was suspended. Nineteen microliters of the cells or supernatant was pipetted to a non-binding 96-well microplate to measure PPIase activity. Four different conditions were performed. […] The plate was kept for 5 min without agitation. The activity measurements were triggered by adding 20 µL of α-chymotrypsin at time 0 min, followed by 1.5 min agitation, and the reaction was stopped after 2 min with 80 µL 20% acetic acid, followed by 15 rounds of up and down pipetting mixing. Four independent experiments were performed on the same day.

Pin1 = target: T1, Pin1 (Homo sapiens, UniProt Q13526); assay: Liquid chromatography-based protease-coupled PPIase activity assay, Pin1 (nagarse); assay type: biochemical
T1 construct: host or cells: Escherichia coli BL21 (DE3)
T1 sequence (Q13526 with tags, fused parts or gaps): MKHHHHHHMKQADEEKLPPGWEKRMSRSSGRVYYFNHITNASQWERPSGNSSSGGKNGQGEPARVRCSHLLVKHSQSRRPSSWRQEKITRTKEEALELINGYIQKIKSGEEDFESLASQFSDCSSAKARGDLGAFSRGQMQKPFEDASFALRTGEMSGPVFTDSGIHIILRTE
Text: A small gap was opened on

fibrin hydrogel = assay: Stiffness (storage modulus) of fibrin gel by rheometer
Procedure: To minimize sample evaporation at 37 °C, a tissue paper wet in HEPEs buffer (10 mM, pH 7.8) was placed inside the H-PTD chamber to increase the humidity. […] The cone and plate were treated with plasma for 5 min to increase the hydrophilicity of the metal surface.
Fibrin gel: Fibrinogen (Shanghai Laishi Xuezhipin Limited Company) was dissolved in PBS with a concentration of 22.2 mg mL^−1 overnight at room temperature with gentle shaking and aliquoted in protein low-binding tubes (45 µL per tube). […] Fifty microliters of thrombin (4 EU mL^−1 in PBS with 1.8 mM CaCl2) was added and pipetted up and down ten times. Then, it was transferred to the rheometer plate for measurement. […] For each condition, two independent experiments were performed (Fig. 1a and Supplementary Fig. 1).

Compound	effect on PACS in two-way mixed lymphocyte reaction [2]	cell surface PPIase activity k, Exp. 1 ([2]; healthy donors ab mixed)	cell surface PPIase activity k, Exp. 2 ([2]; healthy donors ab mixed)	cell surface PPIase activity k, Exp. 3 ([2]; healthy donors ab mixed)	cell surface PPIase activity k, Exp. 4 ([2]; healthy donors ab mixed)	cell surface PPIase activity k, Mean ([2]; healthy donors ab mixed)	cell surface PPIase activity k, Exp. 2 ([2]; healthy donors ac mixed)	cell surface PPIase activity k, Exp. 3 ([2]; healthy donors ac mixed)	cell surface PPIase activity k, Exp. 4 ([2]; healthy donors ac mixed)	cell surface PPIase activity k, Mean ([2]; healthy donors ac mixed)	cell surface PPIase activity k, Exp. 1 ([2]; healthy donors ad mixed)	cell surface PPIase activity k, Exp. 3 ([2]; healthy donors ad mixed)	cell surface PPIase activity k, Exp. 4 ([2]; healthy donors ad mixed)	cell surface PPIase activity k, Mean ([2]; healthy donors ad mixed)	cell surface PPIase activity k, Exp. 1 ([2]; healthy donors bc mixed)	cell surface PPIase activity k, Exp. 3 ([2]; healthy donors bc mixed)	cell surface PPIase activity k, Exp. 4 ([2]; healthy donors bc mixed)	cell surface PPIase activity k, Mean ([2]; healthy donors bc mixed)	cell surface PPIase activity k, Exp. 1 ([2]; healthy donors bd mixed)	cell surface PPIase activity k, Exp. 2 ([2]; healthy donors bd mixed)	other results
C=CC[C@@H]1/C=C(\C)C[C@H](C)C[C@H](OC)[C@H]2O[C@@](O)(C(=O)C(=O)N3CCCC[C@H]3C(=O)O[C@H](/C(C)=C/[C@@H]3CC[C@@H](O)[C@H](OC)C3)[C@H](C)[C@@H](O)CC1=O)[C@H](C)C[C@@H]2OC [FK506]	recover PACS	0.00026 s⁻¹	0.00025 s⁻¹	0.00019 s⁻¹	0.00029 s⁻¹	0.0002475 s⁻¹	0.00014 s⁻¹	0.00019 s⁻¹	0.00016 s⁻¹	0.0001625 s⁻¹	0.00016 s⁻¹	0.00017 s⁻¹	0.00015 s⁻¹	0.00016 s⁻¹	0.00038 s⁻¹	0.00031 s⁻¹	0.00036 s⁻¹	0.000335 s⁻¹	0.00021 s⁻¹	0.00026 s⁻¹	effect on viscosity of cell/fibrinogen mixture ([1]; Jurkat T lymphocyte and fibrinogen, shear rate 100-1000 s^-1): reduce the viscosity; effect on viscosity of cells in PBS or fibrinogen solution ([1]; Jurkat cells in PBS alone or fibrinogen solution alone): neither CsA nor FK506 has an effect; cell surface PPIase activity k, Exp. 1 ([2]; healthy donors ac mixed): 0.00016 s⁻¹; cell surface PPIase activity k, Exp. 2 ([2]; healthy donors bc mixed): 0.00029 s⁻¹; cell surface PPIase activity k, Exp. 4 ([2]; healthy donors bd mixed): 0.00031 s⁻¹; cell surface PPIase activity k, Mean ([2]; healthy donors bd mixed): 0.00026 s⁻¹; cell surface PPIase activity k, Exp. 1 ([2]; healthy donors cd mixed): 0.00017 s⁻¹; cell surface PPIase activity k, Exp. 2 ([2]; healthy donors cd mixed): 0.00019 s⁻¹; cell surface PPIase activity k, Exp. 4 ([2]; healthy donors cd mixed): 0.00018 s⁻¹; cell surface PPIase activity k, Mean ([2]; healthy donors cd mixed): 0.00018 s⁻¹
O=P(O)(O)O [PO4-, inorganic phosphate, reference compound]																					Pin catalyzing cis to trans isomerization rate k, Exp. 1 (Pin1; 25 nM Pin1 + 50 mM PO4-): 0.0025 s⁻¹; Pin catalyzing cis to trans isomerization rate k, Exp. 3 (Pin1; 25 nM Pin1 + 50 mM PO4-): 0.00169 s⁻¹; Pin catalyzing cis to trans isomerization rate k, Mean (Pin1; 25 nM Pin1 + 50 mM PO4-): 0.00212 s⁻¹; effect on Pin1 activity (Pin1; 50 mM): inhibited
CO[C@H]1C[C@@H]2CC[C@@H](C)[C@@](O)(O2)C(=O)C(=O)N2CCCC[C@H]2C(=O)O[C@H]([C@H](C)C[C@@H]2CC[C@@H](O)[C@H](OC)C2)CC(=O)[C@H](C)/C=C(\C)[C@@H](O)[C@@H](OC)C(=O)[C@H](C)C[C@H](C)/C=C/C=C/C=C/1C [rapamycin]	recover PACS	0.00035 s⁻¹	0.00038 s⁻¹	0.00034 s⁻¹	0.0003 s⁻¹	0.0003425 s⁻¹	0.00041 s⁻¹	0.00046 s⁻¹	0.00043 s⁻¹	0.0004333 s⁻¹	0.00034 s⁻¹	0.00027 s⁻¹	0.00037 s⁻¹	0.000315 s⁻¹	0.00037 s⁻¹	0.00037 s⁻¹	0.00034 s⁻¹	0.00036 s⁻¹	0.00043 s⁻¹	0.0005 s⁻¹	cell surface PPIase activity k, Exp. 2 ([2]; healthy donors ad mixed): 0.00028 s⁻¹; cell surface PPIase activity k, Exp. 3 ([2]; healthy donors bd mixed): 0.00053 s⁻¹; cell surface PPIase activity k, Exp. 4 ([2]; healthy donors bd mixed): 0.00054 s⁻¹; cell surface PPIase activity k, Mean ([2]; healthy donors bd mixed): 0.0005 s⁻¹; cell surface PPIase activity k, Exp. 1 ([2]; healthy donors cd mixed): 0.00036 s⁻¹; cell surface PPIase activity k, Exp. 2 ([2]; healthy donors cd mixed): 0.00026 s⁻¹; cell surface PPIase activity k, Exp. 3 ([2]; healthy donors cd mixed): 0.00026 s⁻¹; cell surface PPIase activity k, Exp. 4 ([2]; healthy donors cd mixed): 0.0002 s⁻¹; cell surface PPIase activity k, Mean ([2]; healthy donors cd mixed): 0.00027 s⁻¹
CypA R55A: inactive mutant CypA R55A (a gift from Gunter Fischer)																					effect on fibrin gelation as compared to the wild-type CypA (fibrin hydrogel): remarkably reduced
Pin1: recombinant His-Pin1, parvulin family PPIase																					Pin catalyzing cis to trans isomerization rate k, Exp. 1 (Pin1; 6.25 nM Pin1): 0.00224 s⁻¹; Pin catalyzing cis to trans isomerization rate k, Exp. 2 (Pin1; 6.25 nM Pin1): 0.00228 s⁻¹; Pin catalyzing cis to trans isomerization rate k, Exp. 3 (Pin1; 6.25 nM Pin1): 0.00191 s⁻¹; Pin catalyzing cis to trans isomerization rate k, Mean (Pin1; 6.25 nM Pin1): 0.00214 s⁻¹; Pin catalyzing cis to trans isomerization rate k, Exp. 1 (Pin1; 12.5 nM Pin1): 0.00419 s⁻¹; Pin catalyzing cis to trans isomerization rate k, Exp. 2 (Pin1; 12.5 nM Pin1): 0.00424 s⁻¹; Pin catalyzing cis to trans isomerization rate k, Exp. 3 (Pin1; 12.5 nM Pin1): 0.00418 s⁻¹; Pin catalyzing cis to trans isomerization rate k, Mean (Pin1; 12.5 nM Pin1): 0.0042 s⁻¹; Pin catalyzing cis to trans isomerization rate k, Exp. 1 (Pin1; 25 nM Pin1): 0.00841 s⁻¹; Pin catalyzing cis to trans isomerization rate k, Exp. 2 (Pin1; 25 nM Pin1): 0.00868 s⁻¹; Pin catalyzing cis to trans isomerization rate k, Exp. 3 (Pin1; 25 nM Pin1): 0.00853 s⁻¹; Pin catalyzing cis to trans isomerization rate k, Mean (Pin1; 25 nM Pin1): 0.00854 s⁻¹
